Assay results published in publication PMC10916382, “Repurposing screen identifies novel candidates for broad-spectrum coronavirus antivirals and druggable host targets” (Antimicrobial Agents and Chemotherapy, 2024).
Where two headings read alike, the source gives them in different places.

Assays:
[1] = in vitro; settings: human
[2] = tested on: Huh-7.5/F-Luc cells
[3] = in vitro
[4] = tested on: SARS-CoV-2
[5] = tested on: HCoV-229E; test: microbe, parasite or virus in culture; assay type: cell-based, Homo sapiens sapiens; settings: Human coronavirus 229E
[6] = Huh-7.5/F-Luc cells, maximum tested dose 5 µM
[7] = Huh7.5, read-out: IC50 (µM), HCoV 229E
[8] = Anti-SARS-CoV-2 screening on Calu-3 cells: viability [% of control], Calu-3 cells
[9] = Calu-3 cells, immunofluorescence imaging
[10] = Huh-7.5 cells, dose series, maximum tested dose 5 µM

Row | SMILES | viability at 5 µM [1] | CC50 (µM) [2, 6] | IC50 [5, 7] | viability [3, 8] | Anti-SARS-CoV-2 screening on Calu-3 cells: intracellular SARS-CoV-2 infection measured via immunofluorescence imaging [% of control] [4, 9] | also measured
1 | CNCCC(Oc1cccc2ccccc12)c1cccs1 (stereo not shown) [RFM-000-319-0] | 143% |  |  |  |  | CC50 (µM) [2]: greater than maximum tested dose; viability ([3]; Anti-SARS-CoV-2 screening on Calu-3 cells: viability [% of control]): 104%; Anti-SARS-CoV-2 screening on Calu-3 cells: intracellular SARS-CoV-2 infection measured via immunofluorescence imaging [% of control] [4]: 109.17 % of control; IC50 ([5]; Huh7.5, read-out: IC50 (µM), HCoV 229E, HCoV-229E/R-Luc on Huh-7.5/F-Luc cells, dose series, max. dose 5 µM): 1.44 µM
2 | CCNCc1cc(Nc2ccnc3cc(Cl)ccc23)ccc1O [CBR-001-843-604-9] | 131% | greater than maximum tested dose | 1.43 µM |  |  | 
3 | CN(C)CC(O)COc1ccccc1C1CC2CCC1C2 (stereo not shown) [RFM-012-243-0] | 142% | greater than maximum tested dose | 1.84 µM | 95.3% | 114.97 % of control | 
4 | CCCN(CCC)C(=O)C(Cc1ccc(OCCCN2CCN(C)CC2)cc1)NC(=O)c1cccc(Cl)c1 (stereo not shown) [RFM-012-155-1] | 126% | greater than maximum tested dose | 3.67 µM | 104% | 95.12 % of control | 
5 | CC(C)C(=O)c1ccc(OCCCN2CCC(C(O)(c3ccc(F)cc3)c3ccc(F)cc3)CC2)cc1 [RFM-010-056-1] | 119% | greater than maximum tested dose | 1.47 µM | 93.4% | 122.17 % of control | 
6 | CCc1ccc2c(c1)N(CC(C)CN(C)C)c1ccccc1S2 (stereo not shown) [RFM-012-636-3] | 138% | greater than maximum tested dose | 1.71 µM |  | 133.66 % of control | viability at 48 h, 5 µM [3]: 108%
7 | c1ccc2c(c1)Sc1ccccc1N2CC1CN2CCC1CC2 (stereo not shown) [RFM-000-842-4] | 166% | greater than maximum tested dose | 1.6 µM |  | 112.52 % of control | viability at 48 h, 5 µM [3]: 110%
8 | Cn1cc(C2=C(c3c4n(c5ccccc35)CCC(CN)C4)C(=O)NC2=O)c2ccccc21 (stereo not shown) [RFM-009-039-1] | 154% | greater than maximum tested dose | 1.73 µM | 95.9% | 111.69 % of control | 
9 | CC(OCCN1CCCCCC1)(c1ccccc1)c1ccc(Cl)cc1 (stereo not shown) [RFM-000-944-9] | 146% | greater than maximum tested dose | 1.87 µM | 95.3% | 104.31 % of control | 
10 | Cc1ccc([C@@H](CCNCC2CCCCC2)[C@@H]2CCOC(C)(C)C2)cc1F [RFM-013-052-9] | 119% | greater than maximum tested dose | 1.8 µM | 102% | 121.52 % of control | 
11 | CC(Cc1ccccc1)NCCC(c1ccccc1)c1ccccc1 (stereo not shown) [RFM-000-835-5] | 140% | greater than maximum tested dose | 1.53 µM |  | 102.68 % of control | viability at 48 h, 5 µM [3]: 102%
12 | COC(=O)C1=C(C)NC(C)=C(C(=O)OCCCN2CCC(c3ccccc3)(c3ccccc3)CC2)[C@@H]1c1cccc([N+](=O)[O-])c1 [RFM-003-515-4] | 136% |  | 1.39 µM |  |  | CC50 (µM) [2]: greater than maximum tested dose; viability [3]: 92.9%; Anti-SARS-CoV-2 screening on Calu-3 cells: intracellular SARS-CoV-2 infection measured via immunofluorescence imaging [% of control] [4]: 83.07 % of control
13 | O=c1[nH]c2cc(Cl)ccc2n1C1CCN(CCCC(c2ccc(F)cc2)c2ccc(F)cc2)CC1 [RFM-008-181-2] | 121% | greater than maximum tested dose | 1.84 µM | 107% | 97.91 % of control | 
14 | CN1CCN(CC/C=C2/c3ccccc3Sc3ccc(S(=O)(=O)N(C)C)cc32)CC1 [RFM-003-384-1] | 148% |  | 1.22 µM |  |  | CC50 (µM) [2]: greater than maximum tested dose; viability at 48 h, 5 µM [3]: 114%; Anti-SARS-CoV-2 screening on Calu-3 cells: intracellular SARS-CoV-2 infection measured via immunofluorescence imaging [% of control] [4]: 116.45 % of control
15 | CC(C)Oc1ccc(-c2nc(-c3cccc4c3CC[C@@H]4NCCO)no2)cc1C#N [CBR-001-211-015-5] | 129% | greater than maximum tested dose | 1.17 µM |  |  | 
16 | Oc1ccc2c(c1)OC[C@@H](c1ccccc1)[C@H]2c1ccc(OCCN2CCCC2)cc1 [RFM-011-457-8] | 144% | greater than maximum tested dose | 1.5 µM | 101% | 113.89 % of control | 
17 | OCCN1CCN(CCCN2c3ccccc3Sc3ccc(C(F)(F)F)cc32)CC1 [RFM-001-668-2] | 154% | greater than maximum tested dose |  | 99% | 116.92 % of control | 
18 | CS[C@H]1SC[C@H]2C(=O)N(C)[C@@H](C(C)C)C(=O)OC[C@@H](NC(=O)c3cnc4ccccc4n3)C(=O)N[C@@H](C)C(=O)N(C)[C@@H]1C(=O)N(C)[C@@H](C(C)C)C(=O)OC[C@@H](NC(=O)c1cnc3ccccc3n1)C(=O)N[C@@H](C)C(=O)N2C [Echinomycin] |  |  |  |  | 92.25 % of control | CC50 (µM) [2, 10]: greater than maximum tested dose; viability [3]: 95.2%; IC50 ([5]; Huh7.5, read-out: IC50): 0.1 µM
19 | COc1ccc(C(C)C)cc1CN[C@@H]1C2CCN(CC2)[C@H]1C(c1ccccc1)c1ccccc1 [RFM-011-107-9] |  |  |  |  | 82.87 % of control | CC50 (µM) [2, 10]: greater than maximum tested dose; viability at 48 h, 5 µM [3]: 83.9%; IC50 ([5]; Huh7.5): 1.1 µM
20 | Oc1ccc2c(c1)CC[C@H](c1ccccc1)[C@@H]2c1ccc(OCCN2CCCC2)cc1 [Lasofoxifene] |  |  |  | 92.8% | 119.41 % of control | CC50 (µM) [2, 10]: greater than maximum tested dose; IC50 ([5]; Huh7.5): 0.75 µM
21 | CC/C(=C(\c1ccc(O)cc1)c1ccc(OCCN(C)C)cc1)c1ccccc1 [Afimoxifene] |  |  |  | 93.4% | 100.60 % of control | CC50 (µM) [2, 10]: greater than maximum tested dose; IC50 ([5]; Huh7.5): 0.63 µM
22 | CN1CCC(CNc2ccc3ncc(-c4cccc(OC(F)(F)F)c4)n3n2)CC1 [SGI-1776] |  |  |  | 94.5% | 100.18 % of control | CC50 (µM) [2, 10]: greater than maximum tested dose; IC50 ([5]; Huh7.5): 0.56 µM
23 | OCCN1CCN(CC/C=C2/c3ccccc3Sc3ccc(Cl)cc32)CC1 [ZUCLOPENTHIXOL] |  |  |  |  | 108.85 % of control | CC50 (µM) [2, 10]: greater than maximum tested dose; viability at 48 h, 5 µM [3]: 110%; IC50 ([5]; Huh7.5): 1.13 µM
24 | Cc1c(-c2ccc(O)cc2)n(Cc2ccc(OCCN3CCCCCC3)cc2)c2ccc(O)cc12 [RFM-002-868-2] | 165% | greater than maximum tested dose |  |  | 103.07 % of control | viability at 48 h, 5 µM [3, 8]: 96.9%
25 | COc1cccc2c1C(=O)c1c(O)c3c(c(O)c1C2=O)C[C@@](O)(C(=O)CO)C[C@@H]3O[C@H]1C[C@H](N)[C@H](O[C@@H]2CCCCO2)[C@H](C)O1 [pirarubicin] |  |  |  | 56.9% | 112.83 % of control | CC50 (µM) [2, 10]: greater than maximum tested dose; IC50 ([5]; Huh7.5): 0.89 µM
